Assay results published in patent US10774121B2, “Methods and compositions for treating neurodegenerative disorders and Alzheimer's Disease and improving normal memory” (The Regents of the University of California, priority 2006, dated 2020).
“Also recorded” adds a separate entry of the source.

Key:
Aβ production = assay: ELISA of Aβ produced in β-APP-only:PS-1-only co-culture extracts; format: cell-based, mouse; details: synthetic peptides 0-3 μM added at the time of the co-culture
Protocol: Co-cultures of β-APP-only and PS-1-only cells were carried out in the presence and absence of Peptide 1-80 (0-3 μM). ^35S-GTPγS assays were carried out on extracts as a measure of G-protein activation. The Aβ produced in these co-culture extracts was determined by ELISA.
ES-derived mouse cells (PS-1^−/−; PS-2^−/−) that expressed only small amounts of endogenous β-APP but no PS, were transiently transfected with cDNA for human β-APP to produce cells expressing excess human β-APP over mouse β-APP, and no PS-1 or PS-2 (β-APP-only cells). Embryonic (E18) mouse primary fibroblasts derived from β-APP-null mice, expressing only small amounts of endogenous PS-1 and PS-2, were transfected with cDNAs for human PS-1 to produce cells expressing excess human over mouse PS-1 but no β-APP (PS-1-only cells). The minigenes were co-transfected with PS-1 in the PS-only APP−/− fibroblasts to inhibit the endogenous mouse Gα under investigation in those cells. PS−/− ES cells were separately transfected with human β-APP cDNA (β-APP only cells) and the two types of cells were co-cultured for 24 hours. Cells were harvested and detergent-buffer extracts of the co-cultures were prepared. Determination of [^35S]GTPγS incorporation in these cultures was carried out in the presence and absence of each minigene: Aliquots each containing 100 μg total protein were reacted with ^35S-GTPγS and immunoprecipitation of each ^35S-GTPγS-treated extract was carried out with antibodies directed to the particular Gα under investigation. Specificity of binding of a particular Gα to PS-1 was established by blocking of GTPγS incorporation in the presence of the specific minigene inhibitor.
Co-culture of β-APP-only with PS-1-only cells was carried out as described above.
ELISA for the production of Aβ1-40 was carried out using sandwich ELISA kits (Biosource).

Gαs = target: T1, Gαs (Rattus norvegicus, UniProt P63095); assay: Stimulation of 35S-GTPγS binding to Gs by PS-1 cytoplasmic peptides in rat hippocampal membrane preparations; format: biochemical; details: peptides 200 μM, rat hippocampal membranes
T1 construct: tissue Applied Cell Science, Rockville, Md; host or cells: rat hippocampal membranes, solubilized in CHAPS buffer
T1 sequence (P63095 whole entry): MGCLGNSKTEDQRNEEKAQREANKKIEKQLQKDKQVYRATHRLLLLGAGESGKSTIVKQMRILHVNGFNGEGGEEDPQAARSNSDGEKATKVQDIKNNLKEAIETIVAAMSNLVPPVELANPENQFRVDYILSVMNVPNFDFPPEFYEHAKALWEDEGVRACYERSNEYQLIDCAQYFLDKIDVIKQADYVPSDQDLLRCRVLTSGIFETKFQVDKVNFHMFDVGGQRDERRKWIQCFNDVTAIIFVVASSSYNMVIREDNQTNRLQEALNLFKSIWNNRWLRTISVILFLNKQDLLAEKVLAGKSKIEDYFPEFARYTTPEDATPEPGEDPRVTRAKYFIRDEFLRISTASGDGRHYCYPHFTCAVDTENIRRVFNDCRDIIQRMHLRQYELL
Protocol: (§1) The autonomous activation of G-proteins Gαo, Gαq and Gαs by oligopeptides corresponding to cytoplasmic loops 1, 2, 3 and the COOH tail of human PS-1 in the 7-TM PS model were examined. The peptides were individually tested for their ability to stimulate ^35S-GTPγS binding to each G-protein in rat hippocampal membrane preparations.
(§2) Rat hippocampal membranes (Applied Cell Science, Rockville, Md.) were solubilized in CHAPs buffer.
(§3) Peptides (200 μM) were incubated without pre-treatment with solubilized rat hippocampal membranes (50 μg) in the ^35S reaction mixture. Accumulation of γ-S GTP the ^35S-GTPγS was determined after immunoprecipitation with the specific anti-G Ab.

Gαo [1] = target: T2, Gαo (Rattus norvegicus, UniProt P59215); assay: Stimulation of 35S-GTPγS binding to Go by PS-1 cytoplasmic peptides in rat hippocampal membrane preparations; format: biochemical; details: peptides 200 μM; for stimulation of 35S-GTPγS binding to Go: rat hippocampal membranes
T2 construct: tissue Applied Cell Science, Rockville, Md; host or cells: rat hippocampal membranes, solubilized in CHAPS buffer
T2 sequence (P59215 whole entry): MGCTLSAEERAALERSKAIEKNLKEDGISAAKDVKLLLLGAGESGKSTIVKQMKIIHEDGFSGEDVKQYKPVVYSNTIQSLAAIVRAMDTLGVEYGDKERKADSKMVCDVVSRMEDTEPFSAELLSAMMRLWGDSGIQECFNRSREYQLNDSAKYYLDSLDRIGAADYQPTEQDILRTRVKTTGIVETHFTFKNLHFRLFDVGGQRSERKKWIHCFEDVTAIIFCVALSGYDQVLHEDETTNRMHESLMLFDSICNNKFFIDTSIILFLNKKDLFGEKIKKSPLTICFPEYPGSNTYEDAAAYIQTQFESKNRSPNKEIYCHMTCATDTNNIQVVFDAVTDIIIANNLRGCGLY
Source text: To provide evidence that the GoA binding observed in FIG. 5A was directly to PS-1, and not to a co-immunoprecipitated, PS-associated protein the autonomous activation of Go by synthetic peptide fragments corresponding to cytoplasmic loops 1, 2, 3 and the carboxyl tail of PS-1 (in the 7-TM PS model) were investigated (see FIGS. 20B and C and Table 1). The peptides were individually tested for their ability to stimulate ^35S-GTPγS binding to Go in rat hippocampal membrane preparations.
as §1, §2, §3

Gαq = target: T3, Gαq (Rattus norvegicus, UniProt P82471); assay: Stimulation of 35S-GTPγS binding to Gq by PS-1 cytoplasmic peptides in rat hippocampal membrane preparations; format: biochemical; details: peptides 200 μM, rat hippocampal membranes
T3 sequence (P82471 1-359): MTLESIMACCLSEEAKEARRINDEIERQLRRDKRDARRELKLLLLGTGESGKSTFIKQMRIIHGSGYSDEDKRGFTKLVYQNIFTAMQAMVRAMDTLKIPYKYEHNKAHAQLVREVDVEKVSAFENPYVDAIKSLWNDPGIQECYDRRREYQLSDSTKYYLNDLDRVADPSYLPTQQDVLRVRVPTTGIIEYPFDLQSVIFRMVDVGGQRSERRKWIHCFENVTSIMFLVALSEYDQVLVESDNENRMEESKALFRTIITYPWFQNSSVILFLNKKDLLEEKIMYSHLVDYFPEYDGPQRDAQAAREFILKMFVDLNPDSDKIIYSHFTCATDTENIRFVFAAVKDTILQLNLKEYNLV
Protocol: as §1, §2, §3

[2] = test system: protein tyrosine kinase activity; assay: Protein tyrosine kinase ELISA on extracts of β-APP-transfected ES double-null cells mixed with PS-1-transfected DAMI cells; format: cell-based; details: 25 μg protein added, 0-20 min after mixing
Protocol: DAMI:ES cells: Equal numbers (0.5×10^6/ml) of β-APP 695 (Selkoe and Podlisny, 2002)-transfected ES double-null cells and PS-1 transfected DAMI cells were co-cultured at 37° C. for various times between 0-20 mins.
At several times between 0 and 20 min after mixing, an aliquot of each cell mixture was rapidly centrifuged, the culture medium was removed, and the cell pellet was suspended in 200 μl of extraction buffer (50 mM Tris, pH 8.0/150 mM NaCl/0.5% Nonidet-P40) containing protease inhibitors (1 mM 4-(2-aminoethyl) benzene sulfonyl fluoride hydrochloride (AEBSF)/1 μg/ml antipain/0.1 μg/ml pepstatin A/0.1 μg/ml leupeptin) and the phosphatase inhibitor sodium orthovanadate (0.1 mM). The mixture was sonicated with three bursts of 20 sec duration and then centrifuged. These extract supernatants were then used for Western blot and ELISA analyses as described below.
ELISAs Protein tyrosine kinase activity was measured by an Enzyme Linked Immunosorbent Assay (ELISA) using a tyrosine kinase assay kit (Upstate Biotechnology). A biotinylated substrate peptide containing tandem repeats of Poly (Glu4-Tyr) was incubated with supernatants of extracts of transfected cells mixed for different times ([…]) in the presence of non-radioactive ATP and a Mn^2+/Mg^2+ co-factor cocktail according to the manufacturer's protocols. A phosphotyrosine specific mouse monoclonal antibody (4G10) conjugated to horseradish peroxidase was used to detect the phosphorylated substrate by ELISA.
ES double-null cells transfected with β-APP were mixed with DAMI cells transfected with PS-1, and were co-cultured for various times between 0-20 min, using cell densities that ensured cell-cell contact. ELISA assays were then carried out on cell extracts to measure protein tyrosine kinase activity. […]

G-protein Go = assay: 35S-GTPγS incorporation after addition of β-APPs to solubilized rat hippocampal membranes; format: biochemical
Protocol: Because the results so far described were obtained using only cultured cells transfected with human PS, binding of the endogenous rat PS proteins with rat Gαo present in rat hippocampal membranes was examined. […]
(§4) ^35S-GTPγS Assays: Extract (100 μg of total protein) was mixed with an equal volume of GTPγS Buffer B (50 mM HEPES/NaOH pH 7.4, 40 μM GDP, 50 mM MgCl2, 100 mM NaCl) and reacted with 50 nM ^35S-GTPγS (1250 Ci/mmol, Perkin Elmer, Waltham, Mass.) for 60 min at RT. The reaction was stopped with 10× Stopping buffer (100 mM Tris-HCl, pH 8, 25 mM MgCl2, 100 mM NaCl, 20 mM GTP) followed by immunoprecipitation of the ^35S-GTPγS-Gαo complex with Ab against a particular Gα. The Ab-protein complex was absorbed to Protein A/G agarose for 90 min at RT and washed. The agarose beads were suspended in scintillation fluid (CytoScint, ICN) (5 ml) and counted in a Beckman Coulter LS 6000 SC scintillation counter for 3 min.
as §2

Gαo [3] = assay: 35S-GTPγS incorporation after addition of β-APPs to cell cultures, immunoprecipitation with Gαo antibodies; format: cell-based, mouse
Protocol: In addition, water-soluble β-APP ectodomain itself (B-APPs), when added to cultures of PS-1-only cells, could also activate G-proteins in a dose-dependent manner. β-APPs was partially purified from conditioned media of baculovirus cultures over-expressing human β-APP. The final product (FIG. 18b, lane 1) had, in addition to β-APP, three major contaminating bands at 81 kDa, 55 kDa and 31 kDa that co-purified with the β-APP ectodomain. This partially purified β-APPs preparation was added in increasing amounts to PS-1-only APP^−/− fibroblasts. After 15 mins the cells from each well were harvested in extraction buffer, and detergent extracts (each containing 100 μg protein) were treated with ^35S-GTPγS. Activation of Gαo was assayed after immunoprecipitation of the activated ^35S-GTPγS-Gαo with the Gαo-specific antibodies. […] Furthermore, when partially purified β-APPs was added to untransfected ES (PS^−/−) cells, no increase in G-protein activation was observed by ^35S-GTPγS assays (FIG. 18A, curve 5), further implicating PS as a receptor for the β-APP ligand in the Gαo activation.
To confirm that it was indeed the β-APPs in the partially purified β-APPs preparation that was the ligand responsible for G-protein activation, and not one of the contaminants, β-APPs was removed from the preparation by treatment with MAb 348 to β-APP (see FIG. 18C, lane 2). This β-APPs-depleted solution at the same concentrations used for the non-depleted preparation, was added to the PS-1-only cells, which were then treated exactly as described above. […] In contrast, the β-APPs preparation similarly treated with an irrelevant IgG when added to PS-1-only cells, gave results that resembled those obtained with the untreated samples (FIG. 18A, curve 2).
as §4

DEEEDEEL [Peptide 8, 8-mer of the PS-1 N-terminal domain]
cell-cell interaction and Aβ production, ELISA (Aβ production): inhibits

DEEEDEELTLKYGAK [Peptide 7, 15-mer of the PS-1 N-terminal domain]
cell-cell interaction and Aβ production, ELISA (Aβ production): inhibits

KSVSFYTRKDGQLIYT [ic1(1-16), PS-1 cytoplasmic loop 1 peptide]
stimulation of 35S-GTPγS binding to Gs (Gαs): not

KYLPE [ic3, PS-1 cytoplasmic loop 3 peptide]
stimulation of 35S-GTPγS binding to Go (Gαo [1]): robust stimulation | increase in activation of 35S-GTPγS binding over samples without peptide (Gαo [1]; rat membranes): 200% | stimulation of 35S-GTPγS binding to Gq (Gαq): robust stimulation | stimulation of 35S-GTPγS binding to Gs (Gαs): only background stimulation

N-terminal domain of PS-1 fused to FLAG: fusion protein with FLAG attached at the N-terminus of the PS-1 N-terminal domain, grown in DH5α bacteria
transient increase in protein tyrosine kinase activity after cell mixing [2]: specifically inhibited; also recorded: none of the increases | transient increase in protein tyrosine kinase activity after cell mixing ([2]; listed as FLAG reporter fused to the N-terminal domain of PS-1): no increase

PFTEDTETVGQRALHS [ic1(17-32), PS-1 cytoplasmic loop 1 peptide]
stimulation of 35S-GTPγS binding to Gs (Gαs): induced stimulation

RRSLGHPEPLSNGRP [Peptide 4, 15-mer of the PS-1 N-terminal domain]
cell-cell interaction and Aβ production, ELISA (Aβ production): inhibits

TDYLVQPFMDQLAFHQFYI [C(21-39), remaining 19 amino acids of the PS-1 cytoplasmic C-terminal tail]
stimulation of 35S-GTPγS binding to Go (Gαo [1]; listed as COOH-terminal peptide corresponding to residues 21-39): failed to activate; also recorded: no detectable Go activation | stimulation of 35S-GTPγS binding to Gq (Gαq): robust stimulation | stimulation of 35S-GTPγS binding to Gs (Gαs): induced stimulation

VFKTYNVAVD [ic2, PS-1 cytoplasmic loop 2 peptide]
stimulation of 35S-GTPγS binding to Go (Gαo [1]): only background stimulation | stimulation of 35S-GTPγS binding to Gq (Gαq): only background stimulation | stimulation of 35S-GTPγS binding to Gs (Gαs): only background stimulation

β-APPs: water-soluble β-APP ectodomain, baculovirus-derived, purified or partially purified
transient increase in protein tyrosine kinase activity after cell mixing [2]: specifically inhibited; also recorded: no increase; also recorded: none of the increases | 35S-GTPγS incorporation (G-protein Go; PS-depleted rat membranes (pre-treated with polyclonal Ab to PS-1 and PS-2)): did not occur; also recorded: no increase | incorporation of 35S-GTPγS greater than untreated samples (G-protein Go; rat hippocampal membranes, 80 pM β-APPs): 100% | increase in G-protein Go activation (G-protein Go; rat hippocampal membranes, 400 pM β-APPs): greater than 600% | 35S-GTPγS incorporation (G-protein Go; solubilized rat hippocampal membranes (100 μg), 0-400 pM β-APPs, 15 min): increased ^35S-GTPgS incorporation in a dose-dependent manner | 35S-GTPγS incorporation (Gαo [3]; PS-1-only APP-/- fibroblast cultures, increasing β-APPs, 15 mins): increased ^35S-GTPgS incorporation in a dose-dependent manner | maximum increase in incorporation of 35S-GTPγS (Gαo [3]; PS-1-only APP-/- fibroblasts, 120 pM β-APPs): over 500% | 35S-GTPγS incorporation (Gαo [3]; untransfected APP-/- fibroblasts expressing only endogenous PS): modest G-protein activation; also recorded: only modest increases | 35S-GTPγS incorporation (Gαo [3]; untransfected ES (PS-/-) cells): no increase; also recorded: no significant increases
